Tests used:
[1] = target: T1, GPR37 (Homo sapiens, UniProt O15354); experiment: Ca2+ imaging in HEK293T cells expressing human GPR37 versus mock; lipid overlay dot blot with GPR37-HEK293T lysate; format: cell-based
T1 sequence (O15354 27-613): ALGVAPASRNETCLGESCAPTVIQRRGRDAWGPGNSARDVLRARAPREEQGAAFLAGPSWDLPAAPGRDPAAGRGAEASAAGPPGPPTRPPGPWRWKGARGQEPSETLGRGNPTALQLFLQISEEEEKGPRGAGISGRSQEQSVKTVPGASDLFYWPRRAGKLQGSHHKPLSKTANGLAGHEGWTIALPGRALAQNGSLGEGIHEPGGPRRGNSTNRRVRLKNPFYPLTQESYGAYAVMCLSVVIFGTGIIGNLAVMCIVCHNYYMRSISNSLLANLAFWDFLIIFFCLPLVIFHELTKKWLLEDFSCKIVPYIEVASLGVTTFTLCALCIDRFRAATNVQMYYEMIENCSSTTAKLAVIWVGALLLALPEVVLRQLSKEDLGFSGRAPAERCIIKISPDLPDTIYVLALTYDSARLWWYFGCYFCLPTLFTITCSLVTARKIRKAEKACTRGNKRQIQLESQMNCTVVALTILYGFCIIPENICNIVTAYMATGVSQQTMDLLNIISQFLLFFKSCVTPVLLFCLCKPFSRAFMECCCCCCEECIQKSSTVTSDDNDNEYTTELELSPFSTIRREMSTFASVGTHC

[2] = target: T1, GPR37; experiment: lipid overlay dot blot: ligand-coated PVDF membrane with lysates of HEK293T cells with and without GPR37

**Q.** For CC/C=C\C[C@H](O)/C=C/C=C\C=C\[C@@H](O)C/C=C\C/C=C\CCC(=O)O [PDX, Protectin DX], which EC50 [1] is on record?
**A.** Its EC50 is 23.5 nM.

**Q.** How did the “lipid overlay dot blot: ligand-coated PVDF membrane with lysates of HEK293T cell” value [2] turn out when CC/C=C\C[C@H](O)\C=C/C=C/C=C/[C@H](O)C/C=C\C/C=C\CCC(=O)O [NPD1, neuroprotectin D1] was run?
**A.** Its value is “Lipid overlay assays further confirmed direct binding of PDX and NPD1 to GPR37”.
